The values that follow come from PubChem BioAssay (NCI).

Structures are written as SMILES.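 Interpolation was linear, between the two tested concentrations surrounding the appropriate level; five concentrations were tested over 48 hours in 96-well plates. At the TGI there is no net growth.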 A value given as a limit tells only on which side of the number the result lay.

Some test systems named below: 786-0 renal; ACHN renal; EKVX NSCLC; K-562 leukemia; KM12 colon; MDA-MB-435; MDA-N; NCI-H226 lung; NCI-H23 lung; NCI-H460 lung; NCI/ADR-RES ovarian; OVCAR-4 ovarian; SF-295 CNS; SNB-19 CNS; SW-620 colon; U251 CNS; UACC-257 melanoma; UACC-62 melanoma; HS 578T breast.
Holding throughout (test): NCI tumour cell line growth inhibition, 48 h

As to `CC(C)(C)[Si](C)(C)OCC#C[C@@]1(O)CCCCC1CC(Sc1ccccc1)Sc1ccccc1` (some centres undefined), the TGI with 786-0 renal is 26.4 µM; in the assay with ACHN renal it was 27.4 µM; in the assay on EKVX NSCLC it was 30 µM; in the assay on K-562 leukemia, above 100 µM; in the assay on KM12 colon, 63.8 µM; in the assay with MDA-MB-435 it was 31.4 µM. The TGI came to 37.7 µM with MDA-N; 34.8 µM with NCI-H226 lung; 36.1 µM in the assay with NCI-H23 lung; 34.6 µM in the assay with NCI-H460 lung; 39 µM with NCI/ADR-RES ovarian; 29.2 µM in the assay with OVCAR-4 ovarian. For the same compound, the TGI was 28.2 µM in the assay with SF-295 CNS; 28.7 µM in the assay with SNB-19 CNS; 31.7 µM with SW-620 colon; 26.1 µM with U251 CNS; 29.5 µM with UACC-257 melanoma; 26.7 µM with UACC-62 melanoma.

Turning to `CN(C)CCNC(=O)c1cc(-c2nccn2C)nc2ccccc12`, the TGI with 786-0 renal, with ACHN renal, in the assay with EKVX NSCLC, in the assay with K-562 leukemia, with KM12 colon and in the assay with MDA-MB-435 was above 100 µM each time. Also, the TGI in the assay with MDA-N, in the assay on NCI-H226 lung, with NCI-H23 lung, with NCI-H460 lung, in the assay on NCI/ADR-RES ovarian and in the assay with SNB-19 CNS was above 100 µM each time. The TGI in the assay on SW-620 colon, in the assay with U251 CNS, in the assay on UACC-257 melanoma and with UACC-62 melanoma was above 100 µM throughout.

With `O=C(CN1CCOCC1)Nc1ccc2c(c1)C1Oc3ccccc3CC1CO2` (centres undefined), the TGI in the assay on 786-0 renal, in the assay on ACHN renal, in the assay with EKVX NSCLC, in the assay on K-562 leukemia, with KM12 colon and with MDA-MB-435 was above 100 µM each time. For the same compound, the TGI with MDA-N, in the assay with NCI-H226 lung, in the assay on NCI-H23 lung, with NCI/ADR-RES ovarian, with SF-295 CNS and in the assay on SNB-19 CNS was above 100 µM throughout. Moreover, the TGI in the assay with SW-620 colon, in the assay on U251 CNS, with UACC-257 melanoma and in the assay on UACC-62 melanoma was above 100 µM each time.

For `Cc1ccc(S(=O)(=O)NC2=NS(=O)(=O)c3cc(C)c(Cl)cc3S2)cc1`, the TGI in the assay with 786-0 renal, with ACHN renal, in the assay with EKVX NSCLC, with HS 578T breast, in the assay on K-562 leukemia and in the assay on KM12 colon was above 100 µM each time. Further, the TGI with MDA-MB-435, with NCI-H226 lung, in the assay on NCI-H23 lung, with NCI-H460 lung, with NCI/ADR-RES ovarian and in the assay with OVCAR-4 ovarian was above 100 µM in each case. In addition, the TGI in the assay on SF-295 CNS, in the assay on SNB-19 CNS, with SW-620 colon, in the assay on U251 CNS, in the assay on UACC-257 melanoma and in the assay with UACC-62 melanoma was above 100 µM throughout.

With `Cc1cc(C)c(NS(=O)c2cccc(Cl)c2)c(C)c1` (centres undefined), the TGI with 786-0 renal, with ACHN renal, with EKVX NSCLC, in the assay on K-562 leukemia, in the assay with KM12 colon and in the assay on MDA-MB-435 was above 100 µM throughout. The TGI in the assay with MDA-N, in the assay on NCI-H226 lung, with NCI-H23 lung, with NCI-H460 lung, in the assay on NCI/ADR-RES ovarian and with SF-295 CNS was above 100 µM in each case. Further, the TGI with SNB-19 CNS, in the assay on SW-620 colon, in the assay on U251 CNS and in the assay on UACC-257 melanoma was above 100 µM throughout.

Turning to `CC(C)(C)c1cc(C(=O)/C=C/c2ccc3c(c2)CCO3)cc(C(C)(C)C)c1O`, the TGI was 11.2 µM in the assay with 786-0 renal; above 100 µM in the assay with ACHN renal; above 100 µM in the assay with EKVX NSCLC; above 29.5 µM with HS 578T breast; above 100 µM in the assay with K-562 leukemia; 3.66 µM in the assay on KM12 colon. The TGI with MDA-MB-435 is 0.91 µM; with NCI-H226 lung it was above 28.4 µM; in the assay on NCI-H23 lung, above 24.5 µM; with NCI-H460 lung, 1.92 µM; with NCI/ADR-RES ovarian, 1.05 µM; in the assay with SNB-19 CNS, above 82.3 µM. For the same compound, the results for the TGI in the assay on SW-620 colon, with U251 CNS and with UACC-62 melanoma were above 100 µM, 3.17 µM and 29.6 µM, respectively.

Turning to `CN(C)/C=C/c1ccncc1`, the TGI in the assay on 786-0 renal, with ACHN renal, in the assay with EKVX NSCLC, in the assay with K-562 leukemia, with KM12 colon and in the assay on MDA-MB-435 was above 100 µM throughout. Moreover, the TGI in the assay on MDA-N, in the assay on NCI-H226 lung, in the assay on NCI-H23 lung, in the assay on NCI-H460 lung, in the assay with NCI/ADR-RES ovarian and with OVCAR-4 ovarian was above 100 µM throughout. In addition, the TGI in the assay with SF-295 CNS, with SNB-19 CNS, with SW-620 colon, in the assay with U251 CNS, with UACC-257 melanoma and with UACC-62 melanoma was above 100 µM throughout.

As to `Nc1ccccc1OCc1cc(=O)c(OCc2ccccc2)co1`, the TGI is 76.5 µM in the assay on 786-0 renal; above 100 µM in the assay on ACHN renal; above 100 µM in the assay with EKVX NSCLC; above 100 µM with K-562 leukemia; above 100 µM in the assay with KM12 colon; above 100 µM in the assay on MDA-MB-435. Besides, the TGI was above 100 µM in the assay on MDA-N; above 100 µM in the assay on NCI-H23 lung; above 100 µM with NCI-H460 lung; above 100 µM with NCI/ADR-RES ovarian; above 100 µM in the assay on OVCAR-4 ovarian; 95.1 µM in the assay on SF-295 CNS. The TGI is above 100 µM with SNB-19 CNS; above 100 µM in the assay with SW-620 colon; above 100 µM in the assay on U251 CNS; 81.7 µM with UACC-257 melanoma; 4.49 µM in the assay with UACC-62 melanoma.
